Here are results for 27 compounds from patent US11149036B2, “3-(1H-pyrazol-4-yl)pyridine allosteric modulators of the M4 muscarinic acetylcholine receptor” (Merck Sharp & Dohme Corp., priority 2017, dated 2021).

This experiment deals with T1, human M4 muscarinic acetylcholine receptor (Homo sapiens, UniProt P08173).
T1 construct: expressed in transfected cells; host or cells: CHO-K1
T1 sequence (P08173 1-479): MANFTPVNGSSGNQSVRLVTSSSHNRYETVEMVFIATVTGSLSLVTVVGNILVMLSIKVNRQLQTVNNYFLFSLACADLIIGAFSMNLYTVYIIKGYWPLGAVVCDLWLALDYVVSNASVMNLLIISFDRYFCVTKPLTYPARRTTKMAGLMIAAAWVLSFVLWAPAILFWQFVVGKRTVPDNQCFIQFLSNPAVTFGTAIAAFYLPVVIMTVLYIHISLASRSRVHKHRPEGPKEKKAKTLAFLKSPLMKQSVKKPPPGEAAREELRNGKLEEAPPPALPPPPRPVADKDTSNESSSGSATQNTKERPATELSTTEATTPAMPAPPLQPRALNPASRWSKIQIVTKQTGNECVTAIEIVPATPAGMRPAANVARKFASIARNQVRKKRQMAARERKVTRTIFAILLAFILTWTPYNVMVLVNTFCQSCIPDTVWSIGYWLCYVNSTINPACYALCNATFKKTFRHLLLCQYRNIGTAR
In words: human FLIPR-based M4 PAM assay (CHO-K1 cells with human M4 receptor and Gaqi5, calcium dye fluorescence). Particulars: inflection point (IP) of dose response curve, acetylcholine added at 20% of maximum response, read-out: M4 FLIPPR Hu IP. In kind it is cell-based. As to the method: (§1) In a typical experiment the M4 muscarinic acetylcholine receptor modulating activity of the compounds of the present invention was determined in accordance with the following experimental method. CHO-K1 cells stably transfected with human M4 receptor and chimeric G-protein Gaqi5 (Coward P, et al., Analytical Biochemistry, 270:242-248 (1999)) are thawed from liquid N2 storage, resuspended in growth medium, plated in black, clear bottom 384 well plates, and incubated 16-20 hours at 37° C., 5% CO2. On the day of assay, growth medium is removed, the cells are washed 2 times with wash buffer, and cells are incubated in dye loading buffer at 37° C., 5% CO2 for ˜1 hour. Following dye loading the cell plates are placed in a FLIPR Tetra instrument and while monitoring dye fluorescence (excitation 470-495 […]), 10 uL of test substance at increasing concentrations is added, and fluorescence values are recorded for 4 min. Next, 10 uL of acetylcholine is added (final concentration calculated so as to achieve 20% of the maximum acetycholine response), and the fluorescence reading is continued for 3.5 min. In some cases, a third addition of acetylcholine (final concentration calculated to achieve 70% of the maximal acetylcholine response) is performed. The resulting dose response curves are fit to a 4 parameter logistic equation and the final result is determined as the inflection point (IP) of the curve
as §1, with “CHO-K1” for “In a typical experiment the M4 muscarinic acetylcholine receptor modulating activity of the compounds of the present invention was determined in accordance with the following experimental method. CHO-K1”, “Gaqi5” for “Gaqi5 (Coward P, et al., Analytical Biochemistry, 270:242-248 (1999))”, “performed.” for “performed. The resulting dose response curves are fit to a 4 parameter logistic equation and the final result is determined as the inflection point (IP) of the curve”
Take `Cc1ccc(-c2cnn(CC3CCCC3)c2)c(-c2ccc3oc(C)nc3c2)n1` [Example 11, 5-(3-(1-(cyclopentylmethyl)-1H-pyrazol-4-yl)-6-methylpyridin-2-yl)-2-methylbenzo[d]oxazole]: the EC50 was found to be 46 nM.
To `COc1cc2ccc(-c3nc(C)ccc3-c3cnn(CC4CCCC4)c3F)cc2nn1` [Example 12, 7-(3-(1-(cyclopentylmethyl)-5-fluoro-1H-pyrazol-4-yl)-6-methylpyridin-2-yl)-3-methoxycinnoline] belongs 7 nM.
As to `Cc1ccc(-c2cnn(CC3CCCC3)c2)c(-c2ccc3cc(F)cnc3c2)n1` [Example 13, 7-(3-(1-(cyclopentylmethyl)-1H-pyrazol-4-yl)-6-methylpyridin-2-yl)-3-fluoroquinoline], the EC50 turned out to be 23 nM.
The figure for `Cc1ccc(-c2cnn(CC3(F)CCCC3)c2)c(-c2ccc3cc(C(F)(F)F)cnc3c2)n1` [Example 14, 7-(3-(1-((1-fluorocyclopentyl)methyl)-1H-pyrazol-4-yl)-6-methylpyridin-2-yl)-3-(trifluoromethyl)quinoline] is 30 nM; for `Cc1ccc(-c2cnn(CC3(F)CCCC3)c2)c(-c2ccc3c(c2)ncn3C)n1` [Example 16, 5-(3-(1-((1-fluorocyclopentyl)methyl)-1H-pyrazol-4-yl)-6-methylpyridin-2-yl)-1-methyl-1H-benzo[d]imidazole] it is 34 nM; for `Cc1ccc(-c2cnn(CC3(F)CCCC3)c2)c(-c2ccc3c(c2)C(=O)NC3)n1` [Example 17, 6-(3-(1-((1-fluorocyclopentyl)methyl)-1H-pyrazol-4-yl)-6-methylpyridin-2-yl)isoindolin-1-one] it is 26 nM.
To `Cc1ccc(-c2cnn(CC3(F)CCCC3)c2)c(-c2cnc3c(c2)ncn3C)n1` [Example 18, 6-(3-(1-((1-fluorocyclopentyl)methyl)-1H-pyrazol-4-yl)-6-methylpyridin-2-yl)-3-methyl-3H-imidazo[4,5-b]pyridine] belongs 187 nM; to `Cc1ccc(-c2cnn(CC3(F)CCCC3)c2)c(-c2ccc3c(c2)C(=O)N(CC2CC2)C3)n1` [Example 19, 2-(cyclopropylmethyl)-6-(3-(1-((1-fluorocyclopentyl)methyl)-1H-pyrazol-4-yl)-6-methylpyridin-2-yl)isoindolin-1-one], 20 nM.
To `Cc1ccc(-c2cnn(CC3(F)CCCC3)c2)c(-c2ccc3c(c2)C(=O)N(C2CC2)C3)n1` [Example 20, 2-cyclopropyl-6-(3-(1-((1-fluorocyclopentyl)methyl)-1H-pyrazol-4-yl)-6-methylpyridin-2-yl)isoindolin-1-one] belongs 24 nM; to `Cc1ccc(-c2cnn(CC3(F)CCCC3)c2)c(-c2ccc3cc(F)cnc3c2)n1` [Example 21, 3-fluoro-7-(3-(1-((1-fluorocyclopentyl)methyl)-1H-pyrazol-4-yl)-6-methylpyridin-2-yl)quinoline], 16 nM; to `Cc1ccc(-c2cnn(CC3(F)CCCC3)c2F)c(-c2ccc3cccnc3c2)n1` [Example 22, 7-(3-(5-fluoro-1-((1-fluorocyclopentyl)methyl)-1H-pyrazol-4-yl)-6-methylpyridin-2-yl)quinoline], 15 nM.
For the compound `Cc1ccc(-c2cnn(CC3(F)CCCC3)c2F)c(-c2cnc3c(c2)ncn3C)n1` [Example 23, 6-(3-(5-fluoro-1-((1-fluorocyclopentyl)methyl)-1H-pyrazol-4-yl)-6-methylpyridin-2-yl)-3-methyl-3H-imidazo[4,5-b]pyridine], the EC50 was 121 nM.
To `Cc1ccc(-c2cnn(CC3(F)CCCC3)c2F)c(-c2ccc3c(c2)ncn3C)n1` [Example 24] belongs 70 nM; to `COc1cc2ccc(-c3nc(C)ccc3-c3cnn(CC45CCC(CC4)C5)c3)cc2nn1` [Example 25, 7-(3-(1-(bicyclo[2.2.1]heptan-1-ylmethyl)-1H-pyrazol-4-yl)-6-methylpyridin-2-yl)-3-methoxycinnoline], 10 nM.
The figure for `Cc1ccc(-c2cnn(CC34CCC(CC3)C4)c2)c(-c2ccc3cccnc3c2)n1` [Example 26, 7-(3-(1-(bicyclo[2.2.1]heptan-1-ylmethyl)-1H-pyrazol-4-yl)-6-methylpyridin-2-yl)quinoline] is 10 nM; for `Cc1ccc(-c2cnn(CC3CCC(F)(F)C3)c2)c(-c2ccc3cccnc3c2)n1` (stereo not drawn) [Example 28, 7-(3-(1-((3,3-difluorocyclopentyl)methyl)-1H-pyrazol-4-yl)-6-methylpyridin-2-yl)quinoline] it is 40 nM.
The figure for `Cc1ccc(-c2cnn(CC3(C)CCCC3)c2)c(-c2ccc3cc(F)cnc3c2)n1` [Example 32, 3-fluoro-7-(6-methyl-3-(1-((1-methylcyclopentyl)methyl)-1H-pyrazol-4-yl)pyridin-2-yl) quinoline] is 11 nM; for `Cc1ccc(-c2cnn(CC3(C)CCCC3)c2)c(-c2ccc3c(c2)C(=O)OC3)n1` [Example 33, 6-(6-methyl-3-(1-((1-methylcyclopentyl)methyl)-1H-pyrazol-4-yl)pyridin-2-yl) isobenzofuran-1(3H)-one] it is 35 nM; for `Cc1ccc(-c2cnn(CC3(C)CCCC3)c2)c(-c2ccc3cn(C)nc3c2)n1` [Example 34, 2-methyl-6-(6-methyl-3-(1-((1-methylcyclopentyl)methyl)-1H-pyrazol-4-yl)pyridin-2-yl)-2H-indazole] it is 57 nM.
For `Cc1ccc(-c2cnn(CC3(C)CCCC3)c2)c(-c2ccc3ccn(C)c(=O)c3c2)n1` [Example 35, 2-methyl-7-(6-methyl-3-(1-((1-methylcyclopentyl)methyl)-1H-pyrazol-4-yl)pyridin-2-yl)isoquinolin-1(2H)-one], the EC50 amounted to 26 nM.
To `COc1cc2ccc(-c3nc(C)ccc3-c3cnn(C(F)C4CCCC4)c3F)cc2nn1` (stereo not drawn) [Example 36, 7-(3-(1-(cyclopentylfluoromethyl)-5-fluoro-1H-pyrazol-4-yl)-6-methylpyridin-2-yl)-3-methoxycinnoline] belongs 38 nM; to `COc1cc2ccc(-c3nc(C)ccc3-c3cnn(CC4CC5C(C4)C5(F)F)c3)cc2nn1` (stereo not drawn) [Example 37, 7-(3-(1-((6,6-difluorobicyclo[3.1.0]hexan-3-yl)methyl)-1H-pyrazol-4-yl)-6-methylpyridin-2-yl)-3-methoxycinnoline], 51 nM; to `N#Cc1ccc(-c2cnn(CC3CCCC3)c2)c(-c2ccc3ccnn3c2)n1` [Example 38, 5-(1-(cyclopentylmethyl)-1H-pyrazol-4-yl)-6-(pyrazolo[1,5-a]pyridin-6-yl)picolinonitrile], 13 nM.
The figure for `Cn1ccc2ccc(-c3nc(C#N)ccc3-c3cnn(CC4CCCC4)c3)cc2c1=O` [Example 39, 5-(1-(cyclopentylmethyl)-1H-pyrazol-4-yl)-6-(2-methyl-1-oxo-1,2-dihydroisoquinolin-7-yl)picolinonitrile] is 111 nM; for `N#Cc1ccc(-c2cnn(CC3(F)CCCC3)c2)c(-c2ccc3c(c2)C(=O)N(C2CC2)C3)n1` [Example 40, 6-(2-cyclopropyl-3-oxoisoindolin-5-yl)-5-(1-((1-fluorocyclopentyl)methyl)-1H-pyrazol-4-yl) picolinonitrile] it is 13 nM; for `CN1Cc2ncc(-c3nc(C#N)ccc3-c3cnn(CC4(F)CCCC4)c3)cc2C1=O` [Example 41, 5-(1-((1-fluorocyclopentyl)methyl)-1H-pyrazol-4-yl)-6-(6-methyl-5-oxo-6,7-dihydro-5H-pyrrolo[3,4-b]pyridin-3-yl)picolinonitrile] it is 45 nM.
The figure for `N#Cc1ccc(-c2cnn(CC3(F)CCCC3)c2)c(-c2ccn3cnnc3c2)n1` [Example 42, 6-([1,2,4]triazolo[4,3-a]pyridin-7-yl)-5-(1-((1-fluorocyclopentyl)methyl)-1H-pyrazol-4-yl)picolinonitrile] is 32 nM.
